# Laboratory results: PMC10221837, “Alanine Substitution to Determine the Effect of LR5 and YR6 Rice Peptide Structure on Antioxidant and Anti-Inflammatory Activity” (Nutrients, 2023)
# Ends that are not written are not given here.
# System: RAW264.7 cells
# Assay: MTT proliferation and cytotoxicity of peptides (stimulating index)
# Assay type: cell-based, mouse
# Conditions: RAW264.7, MTT, 24 h, across 12.5, 25, 50 and 100 μg/mL peptide
# Experimental: The MTT colorimetry method was used to determine the effects of original rice peptides and replacement peptides on RAW264.7 cell proliferation, and the toxic effects of these peptides on the cells. RAW264.7 cells were cultured in DMEM high glucose medium containing 10% (v/v) fetal bovine serum (FBS) and 1% (v/v) of penicillin–streptomycin solution (10,000 U/mL of penicillin and 10,000 U/mL of streptomycin). The cells were cultured at 37 °C in a humidified incubator (Boxun Co., Ltd., Shanghai, China) with 5% (v/v) CO2, with sub-culturing every three days.
# Briefly, pre-cultured, logarithmic phase cells were inoculated into 96-well plates (with six double wells for each group), at a cell density of 6.0 × 10^4 cells/mL. Then, 200 μL of cell suspension was added into the wells and incubated for 6 h to make the cells adhere to the well wall. After that, different concentrations of samples (12.5, 25, 50, and 100 μg/mL) were added to four of the six corresponding wells for each group. Sterile water and immunoglobulin G (IgG) were used as the blank and positive control groups, respectively. The samples were subsequently incubated in a humidified incubator with 5% (v/v) CO2 at 37 °C for 24 h, and then 20 μL of MTT solution (5 mg/mL) was added to each well and incubated for a further 4 h. Next, the culture medium supernatant was gently removed from the wells, and 150 μL of dimethyl sulfoxide (DMSO) solution was added into the wells, which were shaken for 10 min at room temperature to ensure that the […] was fully dissolved. Then, the solution was immediately detected at 490 nm. The cytotoxicity was evaluated based on the following stimulating index (SI) value Formula (3):(3) SI=OD1/OD0 where OD1 is the absorbance value at 490 nm of the sample group or the IgG group, and OD0 is the absorbance value at 490 nm of the blank group.
row,Substance,"SI value (stimulating index, OD sample/OD blank)"
1,AGLYPR [AGR6],greater than 1.0
2,AHKFR [AR5],greater than 1.0
3,LHKAR [LAR5],greater than 1.0
4,LHKFR [LR5],greater than 1.0
5,YGAYPR [YAR6],greater than 1.0
6,YGLAPR [YLR6],greater than 1.0
7,YGLYAR [YGR6],greater than 1.0
8,YGLYPR [YR6],greater than 1.0
